Assay results taken from patent US20230174584A1, “Antibiotic Compounds” (priority 2019, published 2023).
Converted amounts (≈) assume the structure as drawn. Read-outs that look alike come from different tables or passages of the source.

Assays:
[1] = tested on: S. aureus 880 (BR-VRSA), NR-49120; assay: MIC assay; type: cell-based, Staphylococcus aureus; conditions: S. aureus 880, NR-49120 VRSA
Procedure: (§1) The antibacterial activity of the compounds was tested against a panel of bacteria, including Gram-positive bacteria (S. aureus ATCC29213, S. aureus USA300, S. aureus LIM-2, NR-45881, S. aureus HIP13419, NR-46413, E. faecium E155, E. faecium E7314, E. faecium E980, E. faecalis E1246, E. faecalis E7406 and S. pneumonia 153). The antibacterial activity of the compounds was further tested against S. aureus NY-155, NR-46236, S. aureus HIP12864, NR-46074, S. aureus 880 (BR-VRSA), NR-49120, E. faecalis E1246, E. faecalis E7604, as well as some Gram-negative bacteria (Escherichia coli and Klebsiella pneumoniae). Minimum inhibitory concentrations (MICs) in μg/mL were performed according to the CLSI guidelines. From glycerol stocks, bacterial strains were cultured on blood agar plates and incubated at 37° C. for 18 h. A single colony was transferred to tryptic soy broth (TSB) with 0.002% polysorbate 80 (p80). For the Enterococcus, VISA and VRSA strains, the cultures were grown at 37° C. until the optical density of the suspension reached a level equivalent to the 0.5 McFarland standard. The bacterial suspensions were diluted in TSB with 0.002% p80 to reach a bacterial cell density of 10^6 CFU/mL. In case of the other (vancomycin-sensitive) S. aureus strains, the direct colony suspension method was used. For these strains, after transfer of the colonies to TSB with 0.002% p80, they were immediately diluted to 10^6 CFU/mL, instead of incubated prior to this dilution. In the case of S. pneumonia, direct colony suspension was used by immediately suspending multiple colonies from fresh blood agar plates in TSB+0.002% p80 to an OD600 of 0.5 and subsequent dilution to 10^6 CFU mL^−1 in TSB+0.002% p80+5% lysed horse blood. Antibiotic dilutions for this strains were also made in TSB+0.002% p80+5% lysed horse blood. Both agar and microplates containing S. pneumonia were incubated at 37° C. with 5% CO2 for 24 h with constant shaking (600 rpm). […] The cultures were grown to exponential phase (OD600=0.5) at 37° C. […] In polypropylene 96-well microtiter plates, test compounds were added in biological triplicates and serial diluted 2-fold by transfer and mixing from one well to the next to achieve a final volume of 50 μL per well. An equal volume of bacterial suspension (10^6 CFU mL^−1) was added to the wells. The plates were sealed with breathable membranes and incubated at 37° C. for 24 h with constant shaking (600 rpm). In polypropylene microtiter plates, 100 μL of the test compounds was added to the first row in biological triplicates, and 50 μL of media was added to the other wells. The compounds were subjected to serial dilution by transfer and mixing of 50 μL from one well to the next. Subsequently, 50 μL of bacterial suspension (10^6 CFU/mL) was added to the wells. The plates were sealed with breathable membranes and incubated at 37° C. for 24 h with constant shaking (600 rpm). Positive growth control consisted of wells with bacterial suspension and without antibiotic. Negative growth control consisted of solely media without bacterial suspension or antibiotic. The MICs were determined from the median of a minimum of triplicates.

S. aureus ATCC29213 = assay: MIC assay; type: cell-based, Staphylococcus aureus
Procedure: as §1

[2] = tested on: S. aureus HIP12864, NR-46074; assay: MIC assay; type: cell-based, Staphylococcus aureus; conditions: S. aureus HIP12864, NR-46074 VISA
Procedure: as §1

[3] = tested on: S. aureus LIM-2, NR-25881; assay: MIC assay; type: cell-based, Staphylococcus aureus; conditions: S. aureus LIM-2, NR-25881 VISA
Procedure: as §1

[4] = tested on: S. aureus NY-155, NR-46236; assay: MIC assay; type: cell-based, Staphylococcus aureus; conditions: S. aureus NY-155, NR-46236 MRSA
Procedure: as §1

[5] = tested on: S. aureus HIP13419, NR-46413; assay: microbe, parasite or virus in culture; type: cell-based, Staphylococcus aureus
Procedure: as §1

S. aureus USA300 = assay: microbe, parasite or virus in culture; type: cell-based, Staphylococcus aureus
Procedure: as §1

E. faecium E980 = assay: MIC assay; type: cell-based, Enterococcus faecium
Procedure: as §1

E. faecium E155 = assay: microbe, parasite or virus in culture; type: cell-based, Enterococcus faecium
Procedure: as §1

E. faecium E7314 = assay: microbe, parasite or virus in culture; type: cell-based, Enterococcus faecium
Procedure: as §1

E. faecalis E1246 = assay: MIC assay; type: cell-based, Enterococcus faecalis
Procedure: as §1

E. faecalis E7406 = assay: microbe, parasite or virus in culture; type: cell-based, Enterococcus faecalis
Procedure: as §1

E. faecalis E7604 = assay: microbe, parasite or virus in culture; type: cell-based, Enterococcus faecalis
Procedure: as §1

S. pneumoniae 153 = assay: MIC assay; type: cell-based; conditions: S. pneumoniae 153, TSB+0.002% p80+5% lysed horse blood
Procedure: as §1

MRSA USA300 = assay: MIC assay in the presence of sheep serum; type: cell-based, Staphylococcus aureus; conditions: MRSA USA300, TSB + 0.002% p80 + 50% sheep serum
Procedure: as §1
The activity of the compounds was further assessed against MRSA USA300 strain in the presence of sheep) serum in another MIC assay. The cultures that grew in the presence of serum used TSB+0.002% P80+50% sheep serum as growth media, as opposed to normal MICs done in only TSB+0.002% P80.

[6] = S. aureus HIP13419, NR-46413 VRSA
[7] = E. faecalis E1246 VRE (VanA), Table 7
[8] = E. faecalis E1246 VRE (vanA), Table 9
[9] = Staphylococcus aureus, read-out: MIC

SMILES | MIC [1] | MIC (S. aureus ATCC29213; S. aureus ATCC29213 MSSA) | MIC [2] | MIC [3] | MIC [4] | MIC [5, 6] | MIC (S. aureus USA300; MRSA USA300, TSB + 0.002% p80) | MIC (S. aureus USA300; S. aureus USA300 MRSA) | MIC (E. faecium E980; E. faecium E980 VSE) | MIC (E. faecium E155; E. faecium E155 VRE (VanA)) | MIC (E. faecium E7314; E. faecium E7314 VRE (VanB)) | MIC (E. faecalis E1246; [7]) | MIC (E. faecalis E1246; [8]) | MIC (E. faecalis E7406; E. faecalis E7406 VRE (VanB)) | MIC (E. faecalis E7604; E. faecalis E7604 VRE (vanB)) | MIC (S. pneumoniae 153) | MIC (MRSA USA300) | other results
CCCCCCCCCCN(CCCCCCCCCC)C(N)=Nc1ccc(CN[C@@]2(C)C[C@H](O[C@H]3[C@H](Oc4c5cc6cc4Oc4ccc(cc4Cl)[C@@H](O)[C@@H](NC(=O)[C@@H](CC(C)C)NC)C(=O)N[C@@H](CC(N)=O)C(=O)N[C@H]6C(=O)N[C@H]4C(=O)N[C@H](C(=O)N[C@H](C(=O)O)c6cc(O)cc(O)c6-c6cc4ccc6O)[C@H](O)c4ccc(c(Cl)c4)O5)O[C@H](CO)[C@@H](O)[C@@H]3O)O[C@@H](C)[C@H]2O)cc1 [Compound 13] | 8 µg/mL (≈ 4.26 µM) | 16 µg/mL (≈ 8.52 µM) | 16 µg/mL (≈ 8.52 µM) | 32 µg/mL (≈ 17 µM) | 16 µg/mL (≈ 8.52 µM) | 8 µg/mL (≈ 4.26 µM) | 16 µg/mL | 16 µg/mL (≈ 8.52 µM) | 4 µg/mL (≈ 2.13 µM) | 8 µg/mL (≈ 4.26 µM) | 4 µg/mL (≈ 2.13 µM) | 32 µg/mL (≈ 17 µM) | 32 µg/mL (≈ 17 µM) | 4 µg/mL (≈ 2.13 µM) | 4 µg/mL (≈ 2.13 µM) | 2 µg/mL (≈ 1.07 µM) | 64 µg/mL | 
CN[C@H](CC(C)C)C(=O)N[C@H]1C(=O)N[C@@H](CC(N)=O)C(=O)N[C@H]2C(=O)N[C@H]3C(=O)N[C@H](C(=O)N[C@H](C(=O)O)c4cc(O)cc(O)c4-c4cc3ccc4O)[C@H](O)c3ccc(c(Cl)c3)Oc3cc2cc(c3O[C@@H]2O[C@H](CO)[C@@H](O)[C@H](O)[C@H]2O[C@H]2C[C@](C)(NCc3ccc(N=C(N)NC/C=C(\C)CC/C=C(\C)CCC=C(C)C)cc3)[C@H](O)[C@H](C)O2)Oc2ccc(cc2Cl)[C@H]1O [Compound 15] | 0.5 µg/mL (≈ 0.278 µM) | 0.03125 µg/mL (≈ 0.0174 µM) | 0.125 µg/mL (≈ 0.0694 µM) | 0.125 µg/mL (≈ 0.0694 µM) | 0.125 µg/mL (≈ 0.0694 µM) | 0.125 µg/mL (≈ 0.0694 µM) | 0.063 µg/mL | 0.0625 µg/mL (≈ 0.0347 µM) | 0.03125 µg/mL (≈ 0.0174 µM) | 0.125 µg/mL (≈ 0.0694 µM) | 0.01562 µg/mL (≈ 0.00867 µM) | 1 µg/mL (≈ 0.555 µM) | 1 µg/mL (≈ 0.555 µM) | 0.03125 µg/mL (≈ 0.0174 µM) | 0.031 µg/mL (≈ 0.0172 µM) | ≤0.008 µg/mL | 1 µg/mL | 
CN[C@H](CC(C)C)C(=O)N[C@H]1C(=O)N[C@@H](CC(N)=O)C(=O)N[C@H]2C(=O)N[C@H]3C(=O)N[C@H](C(=O)N[C@H](C(=O)O)c4cc(O)cc(O)c4-c4cc3ccc4O)[C@H](O)c3ccc(c(Cl)c3)Oc3cc2cc(c3O[C@@H]2O[C@H](CO)[C@@H](O)[C@H](O)[C@H]2O[C@H]2C[C@](C)(NCc3ccc(N=C(N)NC45CC6CC(CC(C6)C4)C5)cc3)[C@H](O)[C@H](C)O2)Oc2ccc(cc2Cl)[C@H]1O [Compound 17] | 8 µg/mL (≈ 4.62 µM) | 0.016 µg/mL (≈ 0.00924 µM) | ≤0.016 µg/mL | 0.125 µg/mL (≈ 0.0722 µM) | 0.031 µg/mL (≈ 0.0179 µM) | 8 µg/mL (≈ 4.62 µM) | 0.031 µg/mL | 0.031 µg/mL (≈ 0.0179 µM) | ≤0.008 µg/mL | 8 µg/mL (≈ 4.62 µM) | 0.016 µg/mL (≈ 0.00924 µM) | 16 µg/mL (≈ 9.24 µM) | 16 µg/mL (≈ 9.24 µM) | 0.125 µg/mL (≈ 0.0722 µM) | 0.125 µg/mL (≈ 0.0722 µM) | 0.016 µg/mL (≈ 0.00924 µM) | 0.125 µg/mL | 
CN[C@H](CC(C)C)C(=O)N[C@H]1C(=O)N[C@@H](CC(N)=O)C(=O)N[C@H]2C(=O)N[C@H]3C(=O)N[C@H](C(=O)N[C@H](C(=O)O)c4cc(O)cc(O)c4-c4cc3ccc4O)[C@H](O)c3ccc(c(Cl)c3)Oc3cc2cc(c3O[C@@H]2O[C@H](CO)[C@@H](O)[C@H](O)[C@H]2O[C@H]2C[C@](C)(NCc3ccc(N=C(N)NCC45CC6CC(CC(C6)C4)C5)cc3)[C@H](O)[C@H](C)O2)Oc2ccc(cc2Cl)[C@H]1O [Compound 18] | 2 µg/mL (≈ 1.15 µM) | ≤0.008 µg/mL | ≤0.016 µg/mL | 0.016 µg/mL (≈ 0.00917 µM) | ≤0.008 µg/mL | 2 µg/mL (≈ 1.15 µM) | ≤0.008 µg/mL | ≤0.008 µg/mL | ≤0.008 µg/mL | 2 µg/mL (≈ 1.15 µM) | ≤0.008 µg/mL | 16 µg/mL (≈ 9.17 µM) | 16 µg/mL (≈ 9.17 µM) | ≤0.008 µg/mL | ≤0.008 µg/mL | ≤0.008 µg/mL | 0.031 µg/mL | 
CN[C@H]1C(=O)N[C@@H]2Cc3ccc(cc3)Oc3cc4cc(c3O[C@@H]3O[C@H](C(=O)O)[C@@H](O)[C@H](O)[C@H]3NC(=O)CCCCCCCCC(C)C)Oc3ccc(cc3Cl)[C@@H](O)[C@@H]3NC(=O)[C@H](NC(=O)[C@@H]4NC(=O)[C@@H](NC2=O)c2cc(cc(O)c2Cl)Oc2cc1ccc2O)c1ccc(O)c(c1)-c1c(O[C@H]2O[C@H](CO)[C@@H](O)[C@H](O)[C@@H]2O)cc(O)cc1[C@@H](C(=O)NCCCN(C)C)NC3=O [Dalbavancin, reference compound] |  |  |  |  |  |  |  |  |  |  |  |  | >128 µg/mL |  |  |  |  | MIC [1, 9]: 2 µg/mL (≈ 1.1 µM); MIC (S. aureus ATCC29213; Staphylococcus aureus, ATCC 29213 / MSSA): 0.25 µg/mL (≈ 0.138 µM); MIC [2, 9]: 0.5 µg/mL (≈ 0.275 µM); MIC [3, 9]: 1 µg/mL (≈ 0.55 µM); MIC [4, 9]: ≤ 0.008 µg/mL; MIC ([5]; Staphylococcus aureus, VRSA): 16 µg/mL (≈ 8.81 µM); MIC (S. aureus USA300; Staphylococcus aureus, MRSA / USA300): 0.25 µg/mL (≈ 0.138 µM); MIC (E. faecium E980; Enterococcus faecium, E980): 0.0625 µg/mL (≈ 0.0344 µM); MIC (E. faecium E155; Enterococcus faecium, VRE): 128 µg/mL (≈ 70.5 µM); MIC (E. faecium E7314; Enterococcus faecium, VRE): 0.0156 µg/mL (≈ 0.0086 µM); MIC (E. faecalis E1246; Enterococcus faecalis, E. faecalis E1246 VRE (VanA), Table 7, read-out: MIC): > 128 µg/mL; MIC (E. faecalis E7406; Enterococcus faecalis, VRE): 0.0312 µg/mL (≈ 0.0172 µM); MIC (E. faecalis E7604; Enterococcus faecalis, VRE): 0.031 µg/mL (≈ 0.0171 µM); MIC (S. pneumoniae 153; Streptococcus pneumoniae, read-out: MIC): ≤ 0.008 µg/mL; MIC (MRSA USA300; Staphylococcus aureus, 24 h, read-out: MIC): 2 µg/mL
